Measurements taken from paper PMC12775124, “CUL4A-DDB1-DCAF10 is an N-recognin for N-terminally acetylated Src kinases” (Nature Communications, 2026).
Where a SMILES comes first, the peptide text is derived from it. The star is where a group is joined. Cbz = O=C(OCc1ccccc1)*

Experiments:
Src [1] = assay: Src turnover, cycloheximide / MG132; format: cell-based, human; conditions: HeLa, n = 3
Protocol: (§1) To assess this, HeLa cells were transfected with NMT1/2 siRNA or left untreated and analysed after addition of cycloheximide (8 h) to block protein synthesis or MG132 (4 h) to inhibit proteasomal degradation.
(§2) 124 Supplementary Fig. 5. NMT1/2 knockdown leads to an increased turnover of SFKs
(§3) 125 and overexpression of DCAF10 reduces SFK levels after NMT1/2 knockdown. […]
(§4) 130 overexpression. Untreated: purple; with NMT1/2 RNAi: blue. Individual data points are
(§5) 131 indicated (n = 2 or 3 independent biological replicates). MG132 = proteasome inhibitor;
(§6) 132 CHX = cycloheximide translational inhibitor. d) HeLa cells were treated for 72 h with and
(§7) 133 without NMT1/2 siRNA and treated with cycloheximide or MG132 for the indicated
(§8) 134 periods of time. Representative WBs are shown. Filled circles indicate treatment; empty
(§9) 135 circles indicate no treatment. e-h) Fold-change analysis of protein expression levels under
(§10) 136 the indicated conditions. Left: fold change after 8 h cycloheximide treatment of (e) Lyn,
(§11) 137 (f) Fyn, (g) Src and (h) THOC7. […]
(§12) 413 knockdown, the transfection reagent Lipofectamine RNAiMAX (Invitrogen, Thermo
(§13) 414 Fisher Scientific, Waltham, MA, USA) was used at a final dilution of 1:333 (3 μL/mL of
(§14) 415 medium). Pools of siRNAs, including siNMT1, siNMT2, siDCAF10, siZYG11B, and
(§15) 416 siZER1, or combinations of different siRNAs, were reverse transfected at a concentration […]

THOC7 = THOC7 turnover, cycloheximide / MG132; format: cell-based, human; conditions: NMT1/2 KD, HeLa, n = 3, 'unaffected'
Protocol: as §1, §2, §3, §4, §5, §6, §7, §8, §9, §10, §11, §12, §13, §14, §15

Fyn [2] = assay: Fyn turnover, cycloheximide / MG132; format: cell-based, human; conditions: HeLa, n = 3
Protocol: as §1, §2, §3, §4, §5, §6, §7, §8, §9, §10, §11
410 HeLa, DLD-1 and all thereof derived stable cell lines, and RPE-1 cells were grown in
412 serum (FBS). Cells were counted and diluted to 100,000 cells/mL. For siRNA
as §12, §13
415 medium). […]

Lyn [3] = assay: Lyn turnover, cycloheximide / MG132; format: cell-based, human; conditions: HeLa, n = 3
Protocol: as §1, §2, §3, §4, §5, §6, §7, §8, §9, §10, §11, §12, §13, §14, §15

ZYG11B = assay: Peptide pull-down with quantitative MS, HeLa lysate, ZYG11B; format: binding, human (HeLa); conditions: Nt-Ac vs Nt-free peptides
Protocol: Biotinylated 10-mer Nt-peptides (Nt-free, Nt-acetylated, and, where indicated, Nt-myristoylated; sequences in Supplementary Table 1) were synthesized with a C-terminal Lys3 spacer and biotin, immobilized on magnetic streptavidin beads, and incubated with HeLa or mouse liver lysates. After standardized washes, bound proteins were on-bead reduced/alkylated, digested with LysC/trypsin, desalted, and analysed by LC-MS in DIA mode (Orbitrap Exploris 480) as described previously. Variants included endogenous Nt-sequences, swap and mutant (Ala-Ala-Ala or Nt-amino acids) peptides, and pairwise comparisons of conditions of interest. Full buffer compositions, bead loading, wash schemes, and MS parameters are provided in the Supplementary Methods.
203 Supplementary Methods
205 Peptide sequences are listed in Supplementary Table 1. Peptide pull-downs were
Briefly, magnetic streptavidin beads (DynabeadsTM
Beads were then washed three times with PBS. After
210 washing, 1 mg of HeLa lysates or 2 mg of liver lysates was taken, and lysis buffer (75
Lysates were incubated with streptavidin
HeLa pull-downs were washed twice with lysis buffer and twice
Liver pulldowns were washed twice with cold low salt buffer (50 mM
220 individually ventilated cages under a 12-h light/dark cycle and were provided with sterile
All procedures were performed
No animal procedures were performed specifically for this […]

Fyn [4] = assay: In vitro ubiquitination of immunoprecipitated Fyn; format: biochemical, human; conditions: 250 nM E3 complex, n = 3
Description: (§16) Having established cellular regulation by DCAF10 under reduced N-myristoylation, we aimed to test whether CUL4A-DDB1-DCAF10 directly ubiquitinates SFKs. […] As we expect NMT1/2 depletion to cause a destabilization of SFKs, their equal or even greater ubiquitination in IPs from untreated cells relative to NMT1/2-depleted cells was unanticipated. We speculate that (i) Nt-acetylated SFKs may degrade rapidly, preventing their accumulation upon NMT1/2 depletion; (ii) an acetylated fraction of SFKs may exist under physiological conditions; (iii) DCAF10 might recognize additional surfaces.
(§17) Reactions contained E1, UBCH5B (E2), ubiquitin, Mg-ATP in ligation buffer and were incubated with bead-bound substrates, followed by washing and immunoblot detection of ubiquitinated species (anti-ubiquitin), with loading controls (anti-Lyn, -Fyn, -Src or -GFP) (n = 3 independent enzymatic assays). Complete reagent lists, complex preparation, substrate IP conditions, wash buffers, and gel/blot parameters are provided in the Supplementary Methods and Tables.
(§18) 357 (v/v) glycerol, 2 mM TCEP, supplemented with Protease Inhibitor Cocktail), and lysed
(§19) 358 by sonication. Lysates were cleared by centrifugation at 28,000 rpm for 45 min at 4 °C […]
(§20) 382 EDTA, and loaded on a gradient gel (4–15%). Ubiquitination of substrates was assessed
(§21) 383 by WB using an anti-ubiquitin antibody. Equal substrate loading was evaluated by anti- […]

Src [5] = assay: In vitro ubiquitination of immunoprecipitated Src; format: biochemical, human; conditions: 250 nM E3 complex, n = 3
Description: as §16, §17, §18, §19, §20, §21

Lyn [6] = assay: In vitro ubiquitination of immunoprecipitated Lyn; format: biochemical, human; conditions: 250 nM E3 complex, 1 h 30°C, Ub normalized to bait, n = 3
Description: as §16, §17, §18, §19, §20, §21

[7] = cycloheximide 100 µg/mL 8 h, NMT1/2 KD relative to cycloheximide-treated control
[8] = IP from NMT1/2-depleted HeLa cells

Molecule: CC(C)C[C@@H](C=O)NC(=O)[C@H](CC(C)C)NC(=O)[C@H](CC(C)C)NC(=O)OCc1ccccc1 [MG132] (Cbz-Leu-Leu-Leu-aldehyde)
- Src increase (Src [1]; MG132 10 µM 4 h, NMT1/2 KD): 2 fold
- THOC7 increase (THOC7; MG132 10 µM 4 h): 1.1 fold
- Fyn increase (Fyn [2]; MG132 10 µM 4 h, NMT1/2 KD): 1.6 fold
- Lyn increase (Lyn [3]; MG132 10 µM 4 h, NMT1/2 KD): 1.6 fold

Molecule: C[C@@H]1C[C@@H]([C@H](O)CC2CC(=O)NC(=O)C2)C(=O)[C@@H](C)C1 [Cycloheximide]
- Src decrease (Src [1]; [7]): 1.3 fold
- THOC7 decrease (THOC7; cycloheximide 100 µg/mL 8 h): 1.1 fold
- Fyn decrease (Fyn [2]; [7]): 1.5 fold
- Lyn decrease (Lyn [3]; [7]): 2 fold

Molecule: GAPATRRCVEKK [Nt-free TMEM97, Nt-peptide of TMEM97, Nt-free]
- ZYG11B binding (in words) (ZYG11B): ZYG11B binding only to the Nt-free peptide of TMEM97

Molecule: WT: catalytically active E3 ligase complex of full-length CUL4A, DDB1, DCAF10 and RBX1
- Fyn ubiquitination, ratio relative to RBX1^mut (Fyn [4]; [8]): 2.27 fold
- Fyn ubiquitination, ratio relative to RBX1^mut (Fyn [4]; IP from control HeLa cells): 2.73 fold
- Src ubiquitination, ratio relative to RBX1^mut (Src [5]; [8]): 2.03 fold
- Src ubiquitination, ratio relative to RBX1^mut (Src [5]; IP from control HeLa cells): 3.0 fold
- Lyn ubiquitination, ratio relative to RBX1^mut (Lyn [6]; [8]): 2.18 fold
- Lyn ubiquitination, ratio relative to RBX1^mut (Lyn [6]; IP from control HeLa cells): 2.58 fold
